Measurements from patent US10105357B2, “Indication of antibiotic drugs for preparation of cancer inhibition pharmaceutical composition” (LAUNX BIOMEDICAL CO., LTD., priority 2014, dated 2018).
Like-named read-outs stand apart in the source and are kept apart here.

Assays:
Type in all cases: cell-based, human
cancer cell lines = assay: Cell viability analysis (WST-1) on cancer cell lines; details: drug 10 μM, 72 hours, WST-1; Table 3
[1] = test system: HI650 (Lung Adenocarcinoma); assay: Cell viability analysis, lung cancer HI650; details: for cell viability (survival rate), H1650: drug 10 μM, 72 hours, WST-1, OD450 nm
[2] = test system: A549 (Lung Adenocarcinoma); assay: Cell viability analysis, lung cancer A549; details: for cell viability (survival rate), A549: drug 10 μM, 72 hours, WST-1, OD450 nm
[3] = test system: AGS (Gastric Adenocarcinoma); assay: Cell viability analysis, gastric cancer AGS; details: for cell viability (survival rate), AGS: drug 10 μM, 72 hours, WST-1, OD450 nm
[4] = test system: MKN-45 (Gastric Adenocarcinoma); assay: Cell viability analysis, gastric cancer MKN-45
[5] = test system: HepG2 (Hepatocellular Carcinoma); assay: Cell viability analysis, hepatic cancer HepG2
[6] = test system: LoVo (Colorectal Adenocarcinoma); assay: Cell viability analysis, colon cancer LoVo; details: for cell viability (survival rate), LoVo: drug 10 μM, 72 hours, WST-1, OD450 nm
[7] = test system: A375 (Amelanotic Melanoma); assay: Cell viability analysis, skin cancer A375
[8] = test system: BCC (basal cell carcinoma); assay: Cell viability analysis, skin cancer BCC
[9] = test system: HeLa (Cervix Adenocarcinoma); assay: Cell viability analysis, cervical cancer HeLa; details: for cell viability (survival rate), HeLa: drug 10 μM, 72 hours, WST-1, OD450 nm
[10] = test system: C-33A (Cervical carcinoma); assay: Cell viability analysis, cervical cancer C-33A
[11] = test system: TSGH-8301 (Urinary Bladder Carcinoma); assay: Cell viability analysis, bladder cancer TSGH-8301; details: for cell viability (survival rate), TSGH: drug 10 μM, 72 hours, WST-1, OD450 nm
T24 = assay: Cell viability analysis, bladder cancer T24
[12] = test system: MCF7 (Mammary Gland, Adenocarcinoma); assay: Cell viability analysis, breast cancer MCF7
[13] = test system: MDA-MB-231 (Mammary Gland, Adenocarcinoma); assay: Cell viability analysis, breast cancer MDA-MB-231
BxPC-3 = assay: Cell viability analysis, pancreatic cancer BxPC-3
NIH: OVCAR-3 = assay: Cell viability analysis, ovarian cancer NIH: OVCAR-3
TOV-21G = assay: Cell viability analysis, ovarian cancer TOV-21G
[14] = test system: SAS (Tongue squamous cell carcinoma); assay: Cell viability analysis, tongue cancer SAS
[15] = test system: 786-O (Renal adenocarcinoma); assay: Cell viability analysis, renal cancer 786-O
AsPC-1 = assay: Cell viability analysis, pancreatic cancer AsPC-1
U-2OS = assay: Cell viability analysis, osteosarcoma U-2OS
[16] = test system: HL-60 (Acute Promyelocytic Leukemia); assay: Cell viability analysis, leukemia HL-60; details: drug 10 μM, 72 hours, WST-1, OD450 nm
[17] = test system: PC3 (p53−) (Prostate Adenocarcinoma); assay: Cell viability analysis, prostate cancer PC3
[18] = drug 10 μM, 72 hours, WST-1, OD450 nm

Molecule: CCCCCCCCCCCCCCCC[N+](C)(C)C.[Br-] [Cetrimonium Bromide]
- inhibition effect on different cancer cell lines (cancer cell lines): significant inhibition effect
- cell viability (survival rate), H1650 [1]: 54.6
- The results of antibiotic drug inhibiting cancer cell lines (cell viability analysis), A549 ([2]; A549, repeated experiment): 20.71
- cell viability (survival rate), A549 [2]: 25.0
- The results of antibiotic drug inhibiting cancer cell lines (cell viability analysis), AGS ([3]; AGS, repeated experiment): 20.83
- cell viability (survival rate), AGS [3]: 42.4
- The results of antibiotic drug inhibiting cancer cell lines (cell viability analysis), MKN-45 ([4]; MKN-45, repeated experiment): 35.25
- The results of antibiotic drug inhibiting cancer cell lines (cell viability analysis), HepG2 ([5]; HepG2, repeated experiment): 56.6
- The results of antibiotic drug inhibiting cancer cell lines (cell viability analysis), LoVo ([6]; LoVo, repeated experiment): 51.72
- cell viability (survival rate), LoVo [6]: 55.4
- The results of antibiotic drug inhibiting cancer cell lines (cell viability analysis), A375 ([7]; A375, repeated experiment): 12.93
- The results of antibiotic drug inhibiting cancer cell lines (cell viability analysis), BCC ([8]; BCC, repeated experiment): 23.59
- The results of antibiotic drug inhibiting cancer cell lines (cell viability analysis), HeLa ([9]; HeLa, repeated experiment): 20.73
- cell viability (survival rate), HeLa [9]: 42.6
- The results of antibiotic drug inhibiting cancer cell lines (cell viability analysis), C-33A ([10]; C-33A, repeated experiment): 35.29
- The results of antibiotic drug inhibiting cancer cell lines (cell viability analysis), TSGH-8301 ([11]; TSGH-8301, repeated experiment): 22.33
- cell viability (survival rate), TSGH [11]: 34.8
- The results of antibiotic drug inhibiting cancer cell lines (cell viability analysis), T24 (T24; T24, repeated experiment): 19.1
- The results of antibiotic drug inhibiting cancer cell lines (cell viability analysis), MCF-7 ([12]; MCF-7, repeated experiment): 47.47
- The results of antibiotic drug inhibiting cancer cell lines (cell viability analysis), MDA-MB231 ([13]; MDA-MB231, repeated experiment): 33.73
- The results of antibiotic drug inhibiting cancer cell lines (cell viability analysis), BxPC-3 (BxPC-3; BxPC-3, repeated experiment): 25.89
- The results of antibiotic drug inhibiting cancer cell lines (cell viability analysis), NIH-OVCAR-3 (NIH: OVCAR-3; NIH-OVCAR-3, repeated experiment): 56.47
- The results of antibiotic drug inhibiting cancer cell lines (cell viability analysis), TOV-21G (TOV-21G; TOV-21G, repeated experiment): 15.69
- The results of antibiotic drug inhibiting cancer cell lines (cell viability analysis), SAS ([14]; SAS, repeated experiment): 21.73
- The results of antibiotic drug inhibiting cancer cell lines (cell viability analysis), 786-O ([15]; 786-O, repeated experiment): 16.85

Molecule: C[C@@H]1[C@H](O)[C@@H](C)/C=C/C=C/CC/C=C/C=C/C=C/C=C/C(O[C@H]2O[C@H](C)[C@@H](O)[C@H](N)[C@@H]2O)CC2O[C@](O)(CC(O)C(O)CCC(O)CC(O)CC(O)CC(=O)O[C@H]1C)CC(O)C2C(=O)O (some centres unmarked) [Nystatin (Mycostatin), Nystatin]
- inhibition effect on different cancer cell lines (cancer cell lines): significant inhibition effect
- The results of antibiotic drug inhibiting cancer cell lines (cell viability analysis), H1650 ([1]; H1650, repeated experiment): 72.42
- cell viability (survival rate), H1650 [1]: 65.4
- The results of antibiotic drug inhibiting cancer cell lines (cell viability analysis), A549 ([2]; A549, repeated experiment): 94.3
- cell viability (survival rate), A549 [2]: 37.1
- cell viability (survival rate), AGS [3]: 50.8
- The results of antibiotic drug inhibiting cancer cell lines (cell viability analysis), MKN-45 ([4]; MKN-45, repeated experiment): 95.89
- cell viability (survival rate), MKN-45 [4, 18]: 44.7
- cell viability (survival rate), LoVo [6]: 70.9
- The results of antibiotic drug inhibiting cancer cell lines (cell viability analysis), A375 ([7]; A375, repeated experiment): 99.37
- cell viability (survival rate), A375 [7, 18]: 62.4
- The results of antibiotic drug inhibiting cancer cell lines (cell viability analysis), BCC ([8]; BCC, repeated experiment): 92.4
- cell viability (survival rate), HeLa [9]: 59.2
- The results of antibiotic drug inhibiting cancer cell lines (cell viability analysis), TSGH-8301 ([11]; TSGH-8301, repeated experiment): 91.24
- cell viability (survival rate), TSGH [11]: 42.1
- The results of antibiotic drug inhibiting cancer cell lines (cell viability analysis), T24 (T24; T24, repeated experiment): 76.44
- The results of antibiotic drug inhibiting cancer cell lines (cell viability analysis), MCF-7 ([12]; MCF-7, repeated experiment): 89.88
- cell viability (survival rate), MCF7 [12, 18]: 46.4
- The results of antibiotic drug inhibiting cancer cell lines (cell viability analysis), MDA-MB231 ([13]; MDA-MB231, repeated experiment): 86.09
- The results of antibiotic drug inhibiting cancer cell lines (cell viability analysis), BxPC-3 (BxPC-3; BxPC-3, repeated experiment): 69.94
- The results of antibiotic drug inhibiting cancer cell lines (cell viability analysis), AsPC-1 (AsPC-1; AsPC-1, repeated experiment): 75.83
- The results of antibiotic drug inhibiting cancer cell lines (cell viability analysis), TOV-21G (TOV-21G; TOV-21G, repeated experiment): 74.99
- The results of antibiotic drug inhibiting cancer cell lines (cell viability analysis), SAS ([14]; SAS, repeated experiment): 97.09
- The results of antibiotic drug inhibiting cancer cell lines (cell viability analysis), U2OS (U-2OS; U2OS, repeated experiment): 76.11
- The results of antibiotic drug inhibiting cancer cell lines (cell viability analysis), 786-O ([15]; 786-O, repeated experiment): 89.48
- cell viability (survival rate), HL-60 [16]: 96.2

Molecule: Colistimethate Sodium
- inhibition effect on different cancer cell lines (cancer cell lines): significant inhibition effect
- The results of antibiotic drug inhibiting cancer cell lines (cell viability analysis), H1650 [1]: 82.62
- The results of antibiotic drug inhibiting cancer cell lines (cell viability analysis), A549 [2]: 89.46
- The results of antibiotic drug inhibiting cancer cell lines (cell viability analysis), AGS [3]: 87.05
- The results of antibiotic drug inhibiting cancer cell lines (cell viability analysis), MKN-45 [4]: 104.8
- The results of antibiotic drug inhibiting cancer cell lines (cell viability analysis), HepG2 [5]: 107.4
- The results of antibiotic drug inhibiting cancer cell lines (cell viability analysis), LoVo [6]: 85.06
- The results of antibiotic drug inhibiting cancer cell lines (cell viability analysis), A375 [7]: 94.89
- The results of antibiotic drug inhibiting cancer cell lines (cell viability analysis), BCC [8]: 77.04
- The results of antibiotic drug inhibiting cancer cell lines (cell viability analysis), HeLa [9]: 77.79
- The results of antibiotic drug inhibiting cancer cell lines (cell viability analysis), C-33A [10]: 107.5
- The results of antibiotic drug inhibiting cancer cell lines (cell viability analysis), PC-3 [17]: 101.1
- The results of antibiotic drug inhibiting cancer cell lines (cell viability analysis), TSGH-8301 [11]: 111.7
- The results of antibiotic drug inhibiting cancer cell lines (cell viability analysis), T24 (T24): 108.3
- The results of antibiotic drug inhibiting cancer cell lines (cell viability analysis), MCF-7 [12]: 74.61
- The results of antibiotic drug inhibiting cancer cell lines (cell viability analysis), MDA-MB231 [13]: 76.75
- The results of antibiotic drug inhibiting cancer cell lines (cell viability analysis), BxPC-3 (BxPC-3): 76.87
- The results of antibiotic drug inhibiting cancer cell lines (cell viability analysis), AsPC-1 (AsPC-1): 82.31
- The results of antibiotic drug inhibiting cancer cell lines (cell viability analysis), NIH-OVCAR-3 (NIH: OVCAR-3): 103.4
- The results of antibiotic drug inhibiting cancer cell lines (cell viability analysis), TOV-21G (TOV-21G): 64.02
- The results of antibiotic drug inhibiting cancer cell lines (cell viability analysis), SAS [14]: 77.78
- The results of antibiotic drug inhibiting cancer cell lines (cell viability analysis), U2OS (U-2OS): 83.33
- The results of antibiotic drug inhibiting cancer cell lines (cell viability analysis), 786-O [15]: 86.46
